In patent US6750228B1, “Aromatic sulfone hydroxamic acid metalloprotease inhibitor” (priority 1997, dated 2004) one finds IC50 data, which are given here for 32 compounds.

Read-outs that look alike come from different tables or passages of the source. Where only a bound is given, the exact number is not on record here.

Holding throughout (assay): biochemical
For one assay, the target named is T1, MMP-1 (Homo sapiens, UniProt P03956).
T1 construct: made in house; host or cells: transfected HT-1080 cells (provided by Dr. Harold Welgus, Washington University)
T1 sequence (P03956 100-469): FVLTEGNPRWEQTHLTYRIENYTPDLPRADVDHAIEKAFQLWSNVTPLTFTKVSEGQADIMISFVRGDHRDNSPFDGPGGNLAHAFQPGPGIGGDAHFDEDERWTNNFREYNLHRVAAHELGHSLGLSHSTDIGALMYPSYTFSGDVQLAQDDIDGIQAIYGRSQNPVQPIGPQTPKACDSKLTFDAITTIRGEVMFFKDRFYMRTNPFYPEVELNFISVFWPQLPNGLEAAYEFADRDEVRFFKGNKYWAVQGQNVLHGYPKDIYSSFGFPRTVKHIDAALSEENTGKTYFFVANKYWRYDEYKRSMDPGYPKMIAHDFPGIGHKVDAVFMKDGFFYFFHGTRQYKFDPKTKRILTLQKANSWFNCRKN
As to conditions: read-out: MMP-1 IC50. Summed up: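 APMA- or trypsin-activated enzymes were preincubated with inhibitor for 5 min at room temperature, then the fluorogenic substrate MCA-Pro-Leu-Gly-Leu-Dpa-Ala-Arg-NH2 was added to a final 4 μM.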

The target in a further assay is T2, MMP-13 (Homo sapiens, UniProt P45452).
T2 construct: made in house; host or cells: baculovirus / insect cells
The essentials: (§1)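 Assay buffer 100 mM Tris-HCl, 100 mM NaCl, 10 mM CaCl2, pH 7.5. Activated MMP + inhibitor, 5 min RT; then methoxycoumarin peptide substrate, 4 μM final. Readout fluorescence; IC50 calculated.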

Another assay deals with T3, MMP-2 (Homo sapiens, UniProt P08253).
T3 construct: made in house; provided by Dr. Gregory Goldberg, Washington University
T3 sequence (P08253 110-660): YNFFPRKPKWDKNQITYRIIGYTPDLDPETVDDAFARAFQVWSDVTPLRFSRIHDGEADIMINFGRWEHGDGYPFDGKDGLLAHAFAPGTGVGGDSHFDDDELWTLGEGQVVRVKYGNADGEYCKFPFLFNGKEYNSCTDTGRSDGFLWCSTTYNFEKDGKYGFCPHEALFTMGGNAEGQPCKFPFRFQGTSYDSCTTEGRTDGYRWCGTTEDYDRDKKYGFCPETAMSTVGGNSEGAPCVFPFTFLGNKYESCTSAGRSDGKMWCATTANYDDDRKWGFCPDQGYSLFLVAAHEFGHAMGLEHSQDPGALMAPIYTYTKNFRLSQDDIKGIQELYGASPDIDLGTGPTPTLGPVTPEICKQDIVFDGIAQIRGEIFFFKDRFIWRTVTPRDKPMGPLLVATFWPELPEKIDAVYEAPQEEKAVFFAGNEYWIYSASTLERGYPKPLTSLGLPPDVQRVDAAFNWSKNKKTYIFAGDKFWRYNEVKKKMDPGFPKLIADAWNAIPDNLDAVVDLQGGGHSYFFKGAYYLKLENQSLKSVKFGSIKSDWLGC
As to conditions: recombinant human MMP-2, MCA peptide substrate 4 μM, pH 7.5, room temperature; read-out: MMP-2 IC50. The essentials:
as §1

Setting [1] is: recombinant human MMP-1, MCA peptide substrate 4 μM, pH 7.5, room temperature.
Setting [2] is: recombinant human MMP-13, MCA peptide substrate 4 μM, pH 7.5, room temperature, read-out: MMP-13 IC50.

Broadly, the IC50 is the midpoint of a concentration-inhibition curve. As to `O=C(NO)C1(S(=O)(=O)c2ccc(N3CCC(CCOCc4ccc(F)cc4)CC3)cc2)CCOCC1` [Example 500], the values for the concentration for half-maximal inhibition (IC50) on MMP-1 (setting [1]), on MMP-13 (setting [2]) and at MMP-2 were over 10000 nM, 3 nM and 22 nM, respectively.

Take `O=C(NO)C1(S(=O)(=O)c2ccc(N3CCC(CCOCc4ccc(Cl)c(Cl)c4)CC3)cc2)CCOCC1` [Example 502]: the IC50 at MMP-1 (setting [1]) was over 10000 nM; at MMP-13 (setting [2]) it was 14 nM; at MMP-2 it was 63 nM.

`O=C(NO)C1(S(=O)(=O)c2ccc(N3CCC(CCOCc4cccc(C(F)(F)F)c4)CC3)cc2)CCOCC1` [Example 503]: the IC50 on MMP-1 (setting [1]) was over 10000 nM; on MMP-13 (setting [2]), 10 nM; on MMP-2, 50 nM.

Turning to `O=C(NO)C1(S(=O)(=O)c2ccc(N3CCCC(COCc4ccccc4)C3)cc2)CCOCC1` (stereo not drawn) [Example 504], the 50% inhibitory concentration (IC50) on MMP-1 (setting [1]) was over 10000 nM; at MMP-13 (setting [2]), 6.3 nM; at MMP-2, 220 nM.

With `O=C(NO)C1(S(=O)(=O)c2ccc(N3CCCC(COCc4ccc(F)cc4)C3)cc2)CCOCC1` (stereo not drawn) [Example 505], the half-maximal inhibitory concentration (IC50) on MMP-1 (setting [1]) was over 10000 nM; at MMP-13 (setting [2]), 14 nM; at MMP-2 it was 72 nM.

As to `O=C(NO)C1(S(=O)(=O)c2ccc(N3CCCC(COCc4cccc(C(F)(F)F)c4)C3)cc2)CCOCC1` (stereo not drawn) [Example 507], the IC50 at MMP-1 (setting [1]) is over 10000 nM; on MMP-13 (setting [2]), 15.8 nM; at MMP-2, 210 nM.

On to `O=C(NO)C1(S(=O)(=O)c2ccc(N3CCCC(COCc4ccc(Cl)c(Cl)c4)C3)cc2)CCOCC1` (stereo not drawn) [Example 508], for which the IC50 on MMP-1 (setting [1]) is over 10000 nM; on MMP-13 (setting [2]), 19.3 nM; at MMP-2 it was 210 nM.

For the compound `O=C(NO)C1(S(=O)(=O)c2ccc(N3CCCCC3CCOCc3ccccc3)cc2)CCOCC1` (stereo not drawn) [Example 509], the IC50 is over 10000 nM at MMP-1 (setting [1]), 520 nM at MMP-13 (setting [2]) and over 10000 nM on MMP-2.

`O=C(NO)C1(S(=O)(=O)c2ccc(N3CCCCC3CCOCc3ccc(F)cc3)cc2)CCOCC1` (stereo not drawn) [Example 510]: the half-inhibitory concentration (IC50) at MMP-1 (setting [1]) was over 10000 nM; at MMP-13 (setting [2]), 7700 nM; at MMP-2, over 10000 nM.

On to `O=C(NO)C1(S(=O)(=O)c2ccc(N3CCCCC3CCOCc3cccc(C(F)(F)F)c3)cc2)CCOCC1` (stereo not drawn) [Example 512], for which the IC50 is over 10000 nM on MMP-1 (setting [1]), 7700 nM on MMP-13 (setting [2]) and over 10000 nM at MMP-2.

In the case of `O=C(NO)C1(S(=O)(=O)c2ccc(N3CCCCC3CCOCc3ccc(Cl)c(Cl)c3)cc2)CCOCC1` (stereo not drawn) [Example 513], the results for the IC50 on MMP-1 (setting [1]), at MMP-13 (setting [2]) and on MMP-2 were over 10000 nM, 7700 nM and over 10000 nM, respectively.

As to `O=C(Nc1ccccc1)OC1CCN(c2ccc(S(=O)(=O)C3(C(=O)NO)CCOCC3)cc2)CC1` [Example 515], the IC50 is over 10000 nM at MMP-1, 8 nM on MMP-13 (setting [2]) and 27 nM on MMP-2.

As for `O=C(NCCc1ccccc1)OC1CCN(c2ccc(S(=O)(=O)C3(C(=O)NO)CCOCC3)cc2)CC1` [Example 516], the results for the IC50 on MMP-1 (setting [1]), on MMP-13 (setting [2]) and on MMP-2 were over 10000 nM, 14.8 nM and 300 nM, respectively.

Consider `CC(C)NC(=O)OC1CCN(c2ccc(S(=O)(=O)C3(C(=O)NO)CCOCC3)cc2)CC1` [Example 517], for which the concentration for half-maximal inhibition (IC50) at MMP-1 (setting [1]) was over 10000 nM; at MMP-13 (setting [2]), 14 nM; on MMP-2, 1100 nM.

For `CCCCOc1ccc(NC(=O)OC2CCN(c3ccc(S(=O)(=O)C4(C(=O)NO)CCOCC4)cc3)CC2)cc1` [Example 518], the values for the IC50 at MMP-1 (setting [1]), at MMP-13 (setting [2]) and at MMP-2 were over 10000 nM, 11.4 nM and 350 nM, respectively.

As for `O=C(Nc1ccc(Oc2ccccc2)cc1)OC1CCN(c2ccc(S(=O)(=O)C3(C(=O)NO)CCOCC3)cc2)CC1` [Example 519], the IC50 on MMP-1 (setting [1]) is over 10000 nM; on MMP-13 (setting [2]), 45.4 nM; on MMP-2, 1300 nM.

Take `O=C(NCc1ccccc1)OC1CCN(c2ccc(S(=O)(=O)C3(C(=O)NO)CCOCC3)cc2)CC1` [Example 520]: the half-inhibitory concentration (IC50) at MMP-1 (setting [1]) was over 10000 nM; at MMP-13 (setting [2]), 22.5 nM; at MMP-2, 250 nM.

Turning to `O=C(Nc1ccccc1Cl)OC1CCN(c2ccc(S(=O)(=O)C3(C(=O)NO)CCOCC3)cc2)CC1` [Example 521], the half-maximal inhibitory concentration (IC50) is over 10000 nM on MMP-1 (setting [1]), 3.5 nM at MMP-13 (setting [2]) and 50 nM at MMP-2.

Consider `COCc1ccc(COC2CCN(c3ccc(S(=O)(=O)C4(C(=O)NO)CCOCC4)cc3)CC2)cc1` [Example 522], for which the values for the concentration for half-maximal inhibition (IC50) on MMP-1 (setting [1]), at MMP-13 (setting [2]) and at MMP-2 were over 10000 nM, 2.4 nM and 94 nM, respectively.

For `CCN(CC)Cc1ccc(COC2CCN(c3ccc(S(=O)(=O)C4(C(=O)NO)CCOCC4)cc3)CC2)cc1` [Example 523], the half-inhibitory concentration (IC50) is over 10000 nM on MMP-1 (setting [1]), 2.4 nM at MMP-13 (setting [2]) and 190 nM at MMP-2.

Consider `COC1CCCN(c2ccc(S(=O)(=O)C3(C(=O)NO)CCOCC3)cc2)C1` (stereo not drawn) [Example 524], for which the concentration for half-maximal inhibition (IC50) is over 10000 nM on MMP-1 (setting [1]), 2700 nM on MMP-13 (setting [2]) and 6400 nM at MMP-2.

For the compound `COCC1CCCN(c2ccc(S(=O)(=O)C3(C(=O)NO)CCOCC3)cc2)C1` (stereo not drawn) [Example 525], the figures for the IC50 on MMP-1 (setting [1]), at MMP-13 (setting [2]) and at MMP-2 were over 10000 nM, 290 nM and 700 nM, respectively.

Regarding `O=C(NO)C1(S(=O)(=O)c2ccc(N3CC[C@@H](COCc4ccc(F)cc4)C3)cc2)CCOCC1` [Example 526], the IC50 at MMP-1 (setting [1]), on MMP-13 (setting [2]) and on MMP-2 was over 10000 nM throughout.

Take `O=C(NO)C1(S(=O)(=O)c2ccc(N3CC[C@@H](COCc4ccc(OC(F)(F)F)cc4)C3)cc2)CCOCC1` [Example 527]: the figures for the half-maximal inhibitory concentration (IC50) on MMP-1 (setting [1]), on MMP-13 (setting [2]) and on MMP-2 were over 10000 nM, 6700 nM and 9000 nM, respectively.

Regarding `COC[C@@H]1CCN(c2ccc(S(=O)(=O)C3(C(=O)NO)CCOCC3)cc2)C1` [Example 529], the IC50 on MMP-1 (setting [1]) is over 10000 nM; on MMP-13 (setting [2]) it was 8800 nM; on MMP-2 it was over 10000 nM.

Consider `O=C(NO)C1(S(=O)(=O)c2ccc(N3CC[C@@H](OCc4ccccc4)C3)cc2)CCOCC1` [Example 530], for which the IC50 at MMP-1 (setting [1]) is over 10000 nM; at MMP-13 (setting [2]), 20 nM; at MMP-2, 60.7 nM.

As for `O=C(NO)C1(S(=O)(=O)c2ccc(N3CC[C@@H](OCc4ccc(F)cc4)C3)cc2)CCOCC1` [Example 531], the results for the 50% inhibitory concentration (IC50) at MMP-1 (setting [1]), on MMP-13 (setting [2]) and at MMP-2 were over 10000 nM, 13 nM and 10 nM, respectively.

Take `O=C(NO)C1(S(=O)(=O)c2ccc(N3CC[C@@H](OCc4cccc(C(F)(F)F)c4)C3)cc2)CCOCC1` [Example 532]: the values for the IC50 on MMP-1 (setting [1]), at MMP-13 (setting [2]) and at MMP-2 were over 10000 nM, 10 nM and 150 nM, respectively.

`CO[C@@H]1CCN(c2ccc(S(=O)(=O)C3(C(=O)NO)CCOCC3)cc2)C1` [Example 533]: the IC50 on MMP-1 (setting [1]) was over 10000 nM; at MMP-13 (setting [2]), 60 nM; at MMP-2 it was 150 nM.

On to `O=C(NO)C1(S(=O)(=O)c2ccc(N3CCN(c4cc(C(F)(F)F)ccn4)CC3)cc2)CCOCC1` [Example 534], for which the results for the concentration for half-maximal inhibition (IC50) on MMP-1 (setting [1]), on MMP-13 (setting [2]) and on MMP-2 were over 10000 nM, 30 nM and 480 nM, respectively.

Consider `Cc1ccc(N2CCN(c3ccc(S(=O)(=O)C4(C(=O)NO)CCOCC4)cc3)CC2)cc1` [Example 535], for which the values for the IC50 at MMP-1 (setting [1]), at MMP-13 (MMP-13 IC50 (nM)) and on MMP-2 were over 10000 nM, 1.9 nM and 35 nM, respectively.

With `Cc1ccccc1N1CCN(c2ccc(S(=O)(=O)C3(C(=O)NO)CCOCC3)cc2)CC1` [Example 536], the IC50 on MMP-1 (setting [1]) was over 10000 nM; at MMP-13 (setting [2]) it was 7.7 nM; on MMP-2, 88 nM.
